Key:
Test in all cases: relative viability (nuclei count vs DMSO), 5 days (fraction); higher = more cells survive
NCI-H1563 = test system: NCI-H1563
Method in brief: (§1)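 Lung cancer cell lines were pin-tool dosed in 1536-well plates on the day after seeding, with either a lone drug or a fixed anchor-drug dose plus five library-drug doses (not always all listed) in √10 steps. Nuclei were counted on 4× images after 5 days. Relative viability is the ratio of treated-well to vehicle-well nuclei counts, with each value a median of duplicate plates.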

NCI-H1299 = test system: NCI-H1299
Method in brief: as §1

Calu-6 = test system: Calu-6
Method in brief: as §1

NCI-H1703 = test system: NCI-H1703
Method in brief: as §1

EBC-1 = test system: EBC-1
Method in brief: as §1

IA-LM = test system: IA-LM
Method in brief: as §1

A549 = test system: A549
Method in brief: as §1

SMILES	relative viability (NCI-H1563; first compound 5 µM)	relative viability (NCI-H1563; first compound 15.81 µM)	relative viability (NCI-H1563; first compound 50 µM)	relative viability (NCI-H1563; first compound 158.11 µM)	relative viability (NCI-H1563; first compound 500 µM)	relative viability (NCI-H1299; first compound 5 µM)	relative viability (NCI-H1299; first compound 15.81 µM)	relative viability (NCI-H1299; first compound 50 µM)	relative viability (NCI-H1299; first compound 158.11 µM)	relative viability (NCI-H1299; first compound 500 µM)	relative viability (Calu-6; first compound 5 µM)	relative viability (Calu-6; first compound 15.81 µM)	relative viability (Calu-6; first compound 50 µM)	relative viability (Calu-6; first compound 158.11 µM)	relative viability (Calu-6; first compound 500 µM)	relative viability (NCI-H1703; first compound 5 µM)	relative viability (NCI-H1703; first compound 15.81 µM)	relative viability (NCI-H1703; first compound 50 µM)	relative viability (NCI-H1703; first compound 158.11 µM)	relative viability (NCI-H1703; first compound 500 µM)	relative viability (EBC-1; first compound 5 µM)	relative viability (EBC-1; first compound 15.81 µM)	relative viability (EBC-1; first compound 50 µM)	relative viability (EBC-1; first compound 158.11 µM)	relative viability (EBC-1; first compound 500 µM)	relative viability (IA-LM; first compound 5 µM)	relative viability (IA-LM; first compound 15.81 µM)	relative viability (IA-LM; first compound 50 µM)	relative viability (IA-LM; first compound 158.11 µM)	relative viability (IA-LM; first compound 500 µM)	relative viability (A549; first compound 5 µM)	relative viability (A549; first compound 15.81 µM)	relative viability (A549; first compound 50 µM)	relative viability (A549; first compound 158.11 µM)	relative viability (A549; first compound 500 µM)
O=C(O)CCCCC(CCSCc1ccccc1)SCc1ccccc1 (stereo not given) [CPI-613] + CC(C)C[C@H](NC(=O)[C@H](Cc1ccccc1)NC(=O)c1cnccn1)B(O)O [Bortezomib] (partner 0.002 µM)	0.956	0.859	0.848	0.508	0.208	1.01	1.01	1.05	1.06	1.03	0.945	0.887	0.879	0.241	0.0719	0.29	0.375	0.316	0.174	0.102	0.576	0.51	0.481	0.0828	0.0663	0.729	0.697	0.758	0.0988	0.0045	–	–	–	–	–
O=C(O)CCCCC(CCSCc1ccccc1)SCc1ccccc1 (stereo not given) [CPI-613] + CS(=O)(=O)CCNCc1ccc(-c2ccc3ncnc(Nc4ccc(OCc5cccc(F)c5)c(Cl)c4)c3c2)o1 [Lapatinib] (partner 2 µM)	1	0.886	0.998	0.427	0.103	0.923	0.945	0.965	0.899	0.888	1.04	1.03	0.866	0.775	0.563	0.943	1.11	1.1	0.452	0.274	0.252	0.213	0.212	0.175	0.145	0.694	0.802	0.665	0.269	0.208	0.933	0.967	0.787	0.348	0.249
O=C(O)CCCCC(CCSCc1ccccc1)SCc1ccccc1 (stereo not given) [CPI-613] + CS(=O)(=O)N1CCN(Cc2cc3nc(-c4cccc5[nH]ncc45)nc(N4CCOCC4)c3s2)CC1 [Pictilisib] (partner 1 µM)	0.657	0.597	0.623	0.513	0.193	0.789	0.756	0.785	0.404	0.106	0.938	0.811	0.754	0.446	0.111	0.25	0.264	0.27	0.213	0.115	0.391	0.37	0.362	0.206	0.0773	0.294	0.307	0.238	0.0746	0.0098	0.491	0.414	0.39	0.127	0.0559
